Source: ChEMBL document CHEMBL1129090, “Potent fluoromethyl ketone inhibitors of recombinant human calpain I” (Bioorg Med Chem Lett, 1996)
*1 amine or outer side, *2 acyl side, *3 side chain or, on linkers, in order; H or OH if unused. Where a SMILES comes first, the peptide text is derived from it. [ ]: non-standard residue; d: D form. The star is where a group is joined. ξ: configuration not given here. ξF = NC(Cc1ccccc1)C(=O)O; Cbz = O=C(OCc1ccccc1)*; Boc = CC(C)(C)OC(=O)*; CO = O=C([*:1])[*:2]; NHBn = c1ccc(CN*)cc1; ξAbu = CCC(N)C(=O)O; CH2F = FC*

Molecular target: T1, Calpain-1 catalytic subunit (Homo sapiens) (UniProt P07384)
T1 sequence (whole entry): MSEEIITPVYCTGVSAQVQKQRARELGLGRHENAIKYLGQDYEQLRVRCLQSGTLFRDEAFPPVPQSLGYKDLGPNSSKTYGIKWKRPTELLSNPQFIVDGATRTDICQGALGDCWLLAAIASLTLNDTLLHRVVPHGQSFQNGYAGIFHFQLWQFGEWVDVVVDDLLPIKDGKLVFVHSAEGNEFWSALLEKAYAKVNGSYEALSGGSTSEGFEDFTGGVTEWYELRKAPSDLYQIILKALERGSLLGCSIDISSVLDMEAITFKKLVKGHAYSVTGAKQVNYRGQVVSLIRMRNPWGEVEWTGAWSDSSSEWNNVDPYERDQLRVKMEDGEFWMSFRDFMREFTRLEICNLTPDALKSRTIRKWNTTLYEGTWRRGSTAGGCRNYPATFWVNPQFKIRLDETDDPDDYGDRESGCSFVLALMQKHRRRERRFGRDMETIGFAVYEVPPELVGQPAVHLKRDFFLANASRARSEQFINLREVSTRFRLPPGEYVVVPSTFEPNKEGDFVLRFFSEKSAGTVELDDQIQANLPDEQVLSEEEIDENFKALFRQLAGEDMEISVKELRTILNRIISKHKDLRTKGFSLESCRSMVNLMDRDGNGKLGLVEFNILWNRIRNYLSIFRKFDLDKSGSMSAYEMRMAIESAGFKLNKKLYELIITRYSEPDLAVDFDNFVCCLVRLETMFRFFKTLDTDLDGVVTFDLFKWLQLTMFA
Assay: Compound was tested for inhibitory activity against recombinant human Calpain 1

| Compound | K obs / 1 [M⁻¹ s⁻¹] |
| --- | --- |
| CC(C)C[C@H](NC(=O)OCc1ccccc1)C(=O)NC(Cc1ccccc1)C(=O)CF (stereo partly drawn) (Cbz-Leu-[ξF]-CH2F) | 136000 |
| CC(C)C[C@H](NC(=O)OC(C)(C)C)C(=O)NC(Cc1ccccc1)C(=O)CF (stereo partly drawn) (Boc-Leu-[ξF]-CH2F) | 68600 |
| CC(C)C[C@H](NS(=O)(=O)N1CCOCC1)C(=O)NC(Cc1ccccc1)C(=O)CF (stereo partly specified) | 67200 |

The remaining lines, values ahead:

| K obs / 1 [M⁻¹ s⁻¹] | Compound |
| --- | --- |
| 4700 | CC(C)C[C@H](NC(=O)[C@H]1O[C@@H]1C(=O)O)C(=O)NCCCCN=C(N)N |
| 24200 | CCC(NC(=O)[C@H](CC(C)C)NC(=O)OCc1ccccc1)C(=O)CF (stereo partly drawn) (Cbz-Leu-[ξAbu]-CH2F) |
| 67200 | CC(C)C[C@H](NC(=O)NCc1ccccc1)C(=O)NC(Cc1ccccc1)C(=O)CF (stereo partly specified) ({NHBn-CO}-Leu-[ξF]-CH2F) |
